Measurements published in patent publication US20220232835A1, “PLANT HEALTH EFFECT OF PURPUREOCILLIUM LILACINUM” (priority 2016, published 2022).

How the values were obtained:
[1] = tested on: tomato seedlings (Lycopersicon lycopersicum); experiment: Drench test in tomato: shoot biomass (plant health); assay type: in vivo; conditions: 10 mg fluopyram/plant at transplanting
Protocol: (§1) To prepare a suitable dosage form the formulated product PL251 (liquid formulation of P. lilacinum comprising BREAK-THRU® S240 and AEROSIL®) is diluted with water to the desired concentration.
(§2) A quantity of 5,000 cm^3 of sandy loam soil, pH 6.8 per pot is mixed with 150,000 infective units (mixed population of eggs and juveniles) of the Southern Root Knot Nematode (Meloidogyne incognita). The desired concentration of Purpureocillium lilacinum strain 251 is drenched in 400 mL of solution (application A) to obtain 80% field capacity. Pots are incubated at 25° C. until transplanting of tomato seedlings (Lycopersicon lycopersicum) at 7 days after drench application A. At the day of transplanting a second drench application (application B) is carried out with 400 mL of solution.
(§3) After transplanting of tomato seedlings several post-plant application patterns are tested using 400 mL of solution per application (Table A).
(§4) In addition, 10 mg of the nematicide fluopyram (VELUM® PRIME, suspension concentrate SC 400) is applied at transplanting and used as a chemical reference. The non-treated control (UTC) is drenched with 400 mL of water at each application. […]
(§5) After the specified period the nematicidal activity is determined on the basis of the percentage of gall reduction. […] Moreover the shoot biomass is also determined to assess the overall plant health status. […]

[2] = tested on: Southern Root Knot Nematode (Meloidogyne incognita); experiment: Drench test in tomato: nematicidal activity (percentage of gall reduction); assay type: in vivo; conditions: 10 mg per plant at transplanting; 3,000 Meloidogyne incognita per 100 cm^3 of soil
Protocol: as §1, §2, §3, §4, §5

O=C(NCCc1ncc(C(F)(F)F)cc1Cl)c1ccccc1C(F)(F)F [fluopyram]
shoot fresh weight vs UTC (ANOVA, Bonferroni) [1]: significant improvement of shoot fresh weight
nematicidal activity (percentage of gall reduction) [2]: excellent biocontrol activity
